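Assay format: 96-well plates, 48-hour exposure. GI50 marks 50% less growth.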 Active and inactive are the calls of the source. Cut-off read from the data, not from the text of the source: active = GI50 up to about 1.1 µM and inactive = higher.
Legend:
Assay in all cases: NCI anticancer screen, dose series, 48 h
NCI-H23 = tested on: NCI-H23
NCI-H226 = tested on: NCI-H226
OVCAR-5 = tested on: OVCAR-5
IGROV-1 = tested on: IGROV-1
UACC-257 = tested on: UACC-257
HL-60 = tested on: HL-60
HOP-92 = tested on: HOP-92
LOX IMVI = tested on: LOX IMVI
SNB-19 = tested on: SNB-19
CAKI-1 = tested on: CAKI-1
SK-OV-3 = tested on: SK-OV-3
SF-295 = tested on: SF-295
SK-MEL-2 = tested on: SK-MEL-2
HCT-116 = tested on: HCT-116
HOP-62 = tested on: HOP-62
CCRF-CEM = tested on: CCRF-CEM
SK-MEL-5 = tested on: SK-MEL-5
NCI-H522 = tested on: NCI-H522
A549 = tested on: A549
COLO 205 = tested on: COLO 205

Measured: GI50

C[Si](C)(N[Si](C)(C)OCCc1ccccc1)OCCc1ccccc1
inactive: NCI-H23 > 100 µM | NCI-H226 > 100 µM | OVCAR-5 > 100 µM | IGROV-1 > 100 µM | UACC-257 > 100 µM | HL-60 > 100 µM | HOP-92 > 100 µM | LOX IMVI > 100 µM | SNB-19 > 100 µM | CAKI-1 > 100 µM | SK-OV-3 > 100 µM | SF-295 > 100 µM | SK-MEL-2 > 100 µM | HCT-116 > 100 µM | HOP-62 > 100 µM | CCRF-CEM > 100 µM | SK-MEL-5 > 100 µM

N#CC1(C#N)C(c2ccccc2)NC23CCCCC2C1(C#N)C(=O)N3 (stereo not given)
inactive: NCI-H23 > 100 µM | NCI-H226 > 100 µM | OVCAR-5 > 100 µM | IGROV-1 > 100 µM | UACC-257 > 100 µM | NCI-H522 > 100 µM | HOP-92 > 100 µM | SNB-19 > 100 µM | CAKI-1 > 100 µM | A549 > 100 µM | SK-OV-3 > 100 µM | COLO 205 > 100 µM | SF-295 > 100 µM | SK-MEL-2 > 100 µM | HCT-116 > 100 µM | HOP-62 > 100 µM | CCRF-CEM 51.6 µM

O=C(CCc1ccc(O)cc1)NCCc1cccc(O)c1
inactive: NCI-H23 > 50 µM | OVCAR-5 > 50 µM | IGROV-1 > 50 µM | UACC-257 > 50 µM | NCI-H522 20.2 µM | HL-60 > 50 µM | HOP-92 > 50 µM | LOX IMVI > 50 µM | SNB-19 > 50 µM | CAKI-1 > 50 µM | A549 > 50 µM | SK-OV-3 > 50 µM | COLO 205 > 50 µM | SF-295 > 50 µM | SK-MEL-2 > 50 µM | HCT-116 > 50 µM | HOP-62 > 50 µM | CCRF-CEM > 50 µM | SK-MEL-5 > 50 µM

C1=CCN(c2ccccc2)CC1
inactive: NCI-H23 31.5 µM | OVCAR-5 > 100 µM | IGROV-1 29.9 µM | UACC-257 28.4 µM | NCI-H522 16.3 µM | HL-60 11.9 µM | HOP-92 21.2 µM | LOX IMVI 43.9 µM | SNB-19 > 100 µM | A549 > 100 µM | SK-OV-3 > 100 µM | COLO 205 34.5 µM | SF-295 > 100 µM | SK-MEL-2 39.1 µM | HCT-116 29.6 µM | CCRF-CEM 6.38 µM | SK-MEL-5 62.7 µM

CC[n+]1c(-c2ccccc2)c2cc(N)ccc2c2ccc(N)cc21 [HOMIDIUM BROMIDE]
inactive: NCI-H23 1.53 µM | OVCAR-5 15.4 µM | UACC-257 2.01 µM | HL-60 5.97 µM | HOP-92 2.24 µM | CAKI-1 16.9 µM | A549 11.9 µM | SK-OV-3 3.52 µM | COLO 205 1.68 µM | SF-295 2.82 µM | SK-MEL-2 2.08 µM | HCT-116 3.62 µM | SK-MEL-5 1.2 µM

N#CC(C#N)=C1CCC2C(=C(C#N)C#N)CCC12 (stereo not given)
inactive: NCI-H23 > 100 µM | NCI-H226 > 100 µM | OVCAR-5 > 100 µM | IGROV-1 > 100 µM | UACC-257 > 100 µM | NCI-H522 > 100 µM | HL-60 > 100 µM | HOP-92 > 100 µM | LOX IMVI > 100 µM | SNB-19 > 100 µM | CAKI-1 > 100 µM | A549 > 100 µM | SK-OV-3 > 100 µM | COLO 205 > 100 µM | SF-295 > 100 µM | HCT-116 > 100 µM | HOP-62 > 100 µM | CCRF-CEM > 100 µM | SK-MEL-5 > 100 µM

CC(C)OP(=O)(OC(C)C)/C(F)=N/Nc1ccc([N+](=O)[O-])cc1
inactive: NCI-H23 > 100 µM | OVCAR-5 > 100 µM | IGROV-1 > 100 µM | UACC-257 > 100 µM | NCI-H522 > 100 µM | HL-60 > 100 µM | HOP-92 > 100 µM | SNB-19 > 100 µM | CAKI-1 > 100 µM | A549 > 100 µM | SK-OV-3 > 100 µM | COLO 205 > 100 µM | SF-295 > 100 µM | SK-MEL-2 > 100 µM | HCT-116 > 100 µM | HOP-62 > 100 µM | CCRF-CEM > 100 µM | SK-MEL-5 > 100 µM

CC(Cc1ccccc1)NC1=NCCO1 (stereo not given)
inactive: NCI-H23 24.9 µM | NCI-H226 > 100 µM | OVCAR-5 > 100 µM | IGROV-1 36 µM | NCI-H522 59.6 µM | HOP-92 26.9 µM | LOX IMVI 18.2 µM | SNB-19 35.6 µM | CAKI-1 > 100 µM | A549 38.8 µM | SK-OV-3 > 100 µM | COLO 205 17.5 µM | SF-295 > 100 µM | SK-MEL-2 39.6 µM | HCT-116 18 µM | HOP-62 84.1 µM | SK-MEL-5 32.3 µM

C1CCCCc2nc3c(nc2CCC1)c1nc2c(nc1c1nc4c(nc31)CCCCCCCC4)CCCCCCCC2
inactive: NCI-H23 > 100 µM | OVCAR-5 > 100 µM | IGROV-1 > 100 µM | UACC-257 > 100 µM | HL-60 > 100 µM | HOP-92 > 100 µM | LOX IMVI > 100 µM | SNB-19 > 100 µM | CAKI-1 > 10 µM | A549 > 100 µM | SK-OV-3 > 100 µM | COLO 205 > 100 µM | SF-295 > 100 µM | SK-MEL-2 > 100 µM | HCT-116 > 100 µM | HOP-62 82.6 µM | CCRF-CEM > 100 µM

CCc1ccc2nc(-c3ccc(O)cc3)sc2c1
inactive: NCI-H23 16.1 µM | NCI-H226 13.2 µM | OVCAR-5 15.3 µM | IGROV-1 14 µM | UACC-257 12.7 µM | NCI-H522 3.86 µM | HL-60 2.96 µM | LOX IMVI 16.3 µM | SNB-19 14.7 µM | CAKI-1 12.4 µM | A549 17.9 µM | SK-OV-3 16.7 µM | COLO 205 15.3 µM | SF-295 16.8 µM | SK-MEL-2 16.5 µM | HCT-116 16.7 µM | SK-MEL-5 17.8 µM

Nc1ccc(S(=O)(=O)c2ccc(NCN3C(=O)NC(=O)C(=O)C3=O)cc2)cc1 [ALLANTODAPSONE]
inactive: NCI-H23 > 100 µM | NCI-H226 > 100 µM | OVCAR-5 > 100 µM | IGROV-1 > 100 µM | UACC-257 > 100 µM | NCI-H522 > 100 µM | HOP-92 > 100 µM | LOX IMVI > 100 µM | SNB-19 > 100 µM | CAKI-1 > 100 µM | A549 > 100 µM | SF-295 > 100 µM | SK-MEL-2 > 100 µM | HCT-116 > 100 µM | HOP-62 > 100 µM | CCRF-CEM 95.7 µM | SK-MEL-5 > 100 µM

COc1ccc(Nc2cnc3cc(N)ccc3n2)cc1OC
inactive: NCI-H23 26.9 µM | NCI-H226 53.8 µM | OVCAR-5 > 100 µM | IGROV-1 > 100 µM | UACC-257 > 100 µM | HL-60 26.7 µM | HOP-92 7.62 µM | LOX IMVI 37.1 µM | SK-OV-3 > 100 µM | COLO 205 > 100 µM | SF-295 34.3 µM | SK-MEL-2 44.3 µM | HCT-116 86.1 µM | HOP-62 61.1 µM | CCRF-CEM 37.4 µM | SK-MEL-5 49.9 µM

COc1ccc(-c2cc(N3CCN(c4ccccc4)CC3)c(C#N)c(=O)o2)cc1
inactive: NCI-H23 47.6 µM | NCI-H226 7.74 µM | OVCAR-5 > 100 µM | IGROV-1 24.8 µM | UACC-257 50.1 µM | HL-60 60.7 µM | HOP-92 55 µM | LOX IMVI 30.5 µM | SNB-19 8.49 µM | CAKI-1 16.7 µM | A549 21.2 µM | COLO 205 > 100 µM | SF-295 14.3 µM | SK-MEL-2 18.8 µM | HCT-116 62.8 µM | CCRF-CEM 98.4 µM | SK-MEL-5 36.4 µM

O=C(Nc1nccs1)c1c(O)nc2sccn2c1=O
inactive: NCI-H23 > 10 µM | NCI-H226 > 10 µM | OVCAR-5 > 10 µM | IGROV-1 > 10 µM | NCI-H522 > 10 µM | HL-60 > 10 µM | LOX IMVI > 10 µM | SNB-19 > 10 µM | CAKI-1 > 10 µM | A549 > 10 µM | SK-OV-3 > 10 µM | COLO 205 > 10 µM | SF-295 > 10 µM | SK-MEL-2 > 10 µM | HCT-116 > 10 µM | HOP-62 > 10 µM | CCRF-CEM > 10 µM | SK-MEL-5 > 10 µM

CSc1nc2c(nc(N)n2C2OCC(O)C(O)C2O)c(=O)[nH]1 (stereo not given)
inactive: NCI-H23 > 100 µM | NCI-H226 > 100 µM | IGROV-1 > 100 µM | UACC-257 > 100 µM | NCI-H522 > 100 µM | HL-60 > 100 µM | HOP-92 > 100 µM | LOX IMVI > 100 µM | SNB-19 > 100 µM | CAKI-1 > 100 µM | A549 > 100 µM | SK-OV-3 > 100 µM | COLO 205 > 100 µM | SF-295 > 100 µM | HCT-116 > 100 µM | HOP-62 > 100 µM | CCRF-CEM > 100 µM | SK-MEL-5 > 100 µM

CC(C)=CCC/C(C)=C/CC/C(C)=C/C(O)c1ccccc1 (stereo not given)
inactive: NCI-H23 22.7 µM | NCI-H226 30.1 µM | OVCAR-5 18.3 µM | IGROV-1 19.8 µM | UACC-257 18.2 µM | NCI-H522 > 10 µM | HL-60 22.5 µM | LOX IMVI 19.6 µM | SNB-19 20.2 µM | CAKI-1 > 10 µM | SK-OV-3 21.8 µM | COLO 205 18.5 µM | SF-295 18.1 µM | SK-MEL-2 19.8 µM | HCT-116 17.9 µM | HOP-62 19.1 µM | CCRF-CEM 23.1 µM | SK-MEL-5 16.6 µM

Source: ChEMBL document CHEMBL1201862, “PubChem BioAssay data set” (2004)
